The nature of this data set: solvent given as SMILES.
[1] abbreviates: in O=P(c1ccccc1)(c1ccccc1)c1ccccc1Oc1ccccc1P(=O)(c1ccccc1)c1ccccc1.

“And” between values parts separate entries of the source, which are not always exact repeats. Identical values can stand only once.

On to `CC1=[N+]2C(=C(c3ccc(N4CCOCC4)cc3)c3ccc(C)n3[B-]2(F)F)C=C1`, for which the emission maximum runs as follows: (in C1CCCCC1) 520 nm; (in C1CCOC1) 695 nm and 528 nm; (in CC#N) 534 nm; (in CC(=O)C(C)(C)C) 530 nm; (in CC(C)=O) 517 nm; (in CCCCCC) 520 nm. Also, the emission maximum reads like this: (in CCOC(C)=O) 520 nm; (in CO) 521 nm; (in Cc1ccccc1) 524 nm; (in ClC(Cl)Cl) 531 nm.

With `O=[N+]([O-])c1ccc(/C=C/c2nc3c4ccccc4c4ccccc4c3o2)cc1`, the emission maximum (in CC#N) is 602 nm.

As to `CNc1cccc2c1-c1ccccc1C2=O`, the emission maximum is listed as 536 nm (in C1CCCCC1), 638 nm (in CC#N), 686 nm (in CCO) and 570 nm (in c1ccccc1).

Regarding `COc1cc(/C=C/c2nc3ccccc3s2)c(OC)cc1/C=C/c1nc(C)nc(/C=C/c2cc(OC)c(/C=C/c3nc4ccccc4s3)cc2OC)n1`, the emission maximum runs as follows: (in C1CCOC1) 490 nm; (in CC#N) 505 nm; (in ClC(Cl)Cl) 500 nm; (in ClCCl) 502 nm.

In the case of `N#CC(C#N)=Cc1ccc2nc(C#Cc3ccc(N(c4ccc(C#Cc5nc6ccc(C=C(C#N)C#N)cc6s5)cc4)c4ccc(C#Cc5nc6ccc(C=C(C#N)C#N)cc6s5)cc4)cc3)sc2c1`, the emission maximum (in Cc1ccccc1) is listed as 512 nm.

As to `C(=C\c1ccc(N(c2ccc(/C=C/c3ccc(N(c4ccccc4)c4ccccc4)cc3)cc2)c2ccc(-c3nc4ccccc4nc3-c3ccc(N(c4ccc(/C=C/c5ccc(N(c6ccccc6)c6ccccc6)cc5)cc4)c4ccc(/C=C/c5ccc(N(c6ccccc6)c6ccccc6)cc5)cc4)cc3)cc2)cc1)/c1ccc(N(c2ccccc2)c2ccccc2)cc1`, the emission maximum turned out to be 532 nm (in C1CCOC1) and 521 nm (in Cc1ccccc1).

In turn, `CN1/C(=C/C=C(/C=C/c2sc3ccccc3[n+]2C)c2cccc(C(F)(F)F)c2)Sc2ccccc21` showed an emission maximum (in CCO) of 665 nm, an emission maximum (in CO) of 661 nm, an emission maximum (in CS(C)=O) of 665 nm and an emission maximum (in O) of 659 nm.

The molecule `CCCC(=O)c1c(OCOC)c(OCOC)c(C(=O)CCC)c2c1OCO2` displayed an emission maximum (in CC#N) of 503 nm.

For the molecule `COc1cc(-c2cc(-c3ccc(C)cc3)nc3c(C#N)c(N4CCCC4)nc(N)c23)cc(OC)c1OC`, the emission maximum is on record as 525 nm (in CC#N); 521 nm (in CC(C)=O); 513 nm (in CC(C)O); 526 nm (in CO); 509 nm (in ClC(Cl)Cl); 515 nm (in ClCCl). For the setting “in c1ccccc1”, this molecule gave an emission maximum of 508 nm.

Molecule `CCCCCCCCCc1csc2cc(-c3cc(-c4cc5scc(CCCCCCCCC)c5s4)c4ccc5c(-c6cc7scc(CCCCCCCCC)c7s6)cc(-c6cc7scc(CCCCCCCCC)c7s6)c6ccc3c4c65)sc12` yielded an emission maximum (in ClC(Cl)Cl) of 490 nm.

Turning to `c1ccc(-c2nc(-c3ccccc3)nc(-c3ccc(-n4c5ccccc5c5cc6c(cc54)C4(c5ccccc5-c5ccccc54)c4ccccc4-6)cc3)n2)cc1`, the emission maximum is, setting by setting: (in C1CCOC1) 492.65 nm; (in CCCCCC) 396.27 nm; (in Cc1ccccc1) 432 nm; (in ClCCl) 501.47 nm; under setting [1], 470 nm.

As for `c1ccc(N(c2ccccc2)c2c3ccccc3cc3ccccc23)cc1`, the emission maximum (in Cc1ccccc1) is given as 489 nm.

Regarding `Oc1ccccc1C1=NC2c3cccc4cccc(c34)C2N1c1ccccc1` (configuration not stated), for the setting “in Cc1ccccc1”, the emission maximum was 575 nm.

Regarding `CC(=O)OC[C@H]1O[C@@H](OCC#Cc2ccc(C3=C4C(C)=CC(/C=C/c5ccc(N(C)C)cc5)=[N+]4[B-](F)(F)n4c(/C=C/c5ccc(N(C)C)cc5)cc(C)c43)cc2)[C@H](OC(C)=O)C(OC(C)=O)[C@@H]1OC(C)=O` (some centres not stated), the emission maximum (in CC#N) was 769 nm.

With `CCCCC1=Cc2c3ccc4cccc5ccc(c6cc(-c7ccccc7)n(c26)P1(=O)c1ccccc1)c3c45` (configuration not stated), the emission maximum (in C1CCCCC1) is 452 nm; the emission maximum (in C1CCOC1) was found to be 459 nm; the emission maximum (in C1COCCO1) worked out at 460 nm; the emission maximum (in CC#N) was found to be 459 nm; the emission maximum (in CC(C)=O) was 459 nm; the emission maximum (in CO) is listed as 459 nm. The emission maximum worked out at 460 nm (in Cc1ccccc1), 458 nm (in ClC(Cl)Cl) and 459 nm (in ClCCl).

Consider `c1ccc(C2=C(c3ccccc3)c3cccc4c3c(cc3nc5c(-c6ccccc6)ccc(-c6ccccc6)c5nc34)O2)cc1`, for which the emission maximum (in ClCCl) stood at 551 nm.

For the setting “in C1CCCCC1”, `CCCCC#Cc1cccc2cc(CCCC)c3cc(-c4cc[b-]5c(c4)c(CCCC)cc4cccc(C#CCCCC)[n+]54)cc[b-]3[n+]12` showed an emission maximum of 598 nm.

`N#Cc1c(N2CCCCC2)cc(-c2cccs2)c2c1CCc1ccccc1-2`: for the setting “in C1CCOC1”, the emission maximum is 474 nm.

For `CC(=O)[B-]1(C(C)=O)OC(c2ccccc2)=CC(c2ccccc2)=[O+]1`, the emission maximum was determined as 400 nm (in CC#N) and 402 nm (in ClC(Cl)(Cl)Cl).

Molecule `O=C1C2=C(O[B-](F)(F)[n+]3c2ccc2ccccc23)c2cccc3c(N4CCOCC4)ccc1c23` yielded an emission maximum (in C1CCOC1) of 596 nm; an emission maximum (in CC#N) of 620 nm; an emission maximum (in CCO) of 584 nm; an emission maximum (in CO) of 564 nm; an emission maximum (in ClCCl) of 588 nm.

Consider `c1ccc(N2N=C(c3ccc4ccc5cccc6ccc3c4c56)CC2c2ccc3ccc4cccc5ccc2c3c45)cc1` (configuration not stated), for which the emission maximum (in ClCCl) is given as 508 nm.

Take `COc1ccc(-c2csc(/C(C#N)=C/c3ccc(Cl)cc3Cl)n2)cc1`: for the setting “in CC#N”, the emission maximum is 557 nm.

As to `CC(C)(C)NC(=O)c1cccc2ccc3c4ccccc4c4ccccc4c3c12`, the emission maximum (in ClCCl) came out at 403 nm.

Consider `Cc1cc2c(o1)c(Br)cc1c(C)cc(=O)oc12`, for which the emission maximum was found to be 408 nm (in C1CCCCC1); 418 nm (in C1COCCO1); 435 nm (in CC#N); 439 nm (in CCO); 436 nm (in OCC(F)(F)F).

`N#Cc1cc(C#Cc2c(F)c(F)nc(F)c2F)c(C#Cc2c(F)c(F)nc(F)c2F)cc1C#N` gave an emission maximum (in CC#N) of 370 nm.

On to `CCCCC(CC)CN1C(=O)C2=C(c3ccc(-c4ccc(C5=C6C(C)=CC(C)=[N+]6[B-](F)(F)n6c(C)cc(C)c65)cc4)s3)N(CC(CC)CCCC)C(=O)C2=C1c1cccs1` (configuration not stated), for which, for the setting “in Cc1ccccc1”, the emission maximum is 623 nm.

Under “in Cc1ccccc1”, `c1cc2ccc3ccc4cc3c2cc1c1ccc2ccc3ccc(cc3c2c1)c1ccc2ccc3ccc4cc3c2c1` returned an emission maximum of 419 nm.

As to `N#Cc1cc2ccccc2oc1=N`, the emission maximum (in C1CCOC1) came out at 409 nm; the emission maximum (in CC#N) worked out at 407 nm; the emission maximum (in CCOC(C)=O) came to 410 nm; the emission maximum (in CS(C)=O) was 406 nm; the emission maximum (in ClC(Cl)Cl) amounted to 411 nm.

For `O=C1c2ccccc2C2=Cc3cccc[n+]3[B-](F)(F)N12`, the emission maximum (in CCO) stood at 449 nm, the emission maximum (in Cc1ccccc1) worked out at 459 nm and the emission maximum (in ClCCl) is recorded as 454 nm.

As to `CC1(C)c2ccccc2N(c2cccc(S(=O)(=O)c3cccc(N4c5ccccc5C(C)(C)c5ccccc54)c3)c2)c2ccccc21`, the emission maximum is, setting by setting: (in C1CCOC1) 422 nm; (in CCCCC(CC)n1c2ccc(-n3c4ccccc4c4ccccc43)cc2c2cc(-n3c4ccccc4c4ccccc43)ccc21) 509.28 nm; (in Cc1ccccc1) 489 nm; (in ClC(Cl)Cl) 515 nm; (in c1cc(-n2c3ccccc3c3ccccc32)cc(-n2c3ccccc3c3ccccc32)c1) 505.12 nm.

In turn, `Cc1ccc2c(c1)C(c1ccccc1)(c1ccccc1)c1cc(C)ccc1N2c1ccc2c(c1)N(c1ccccc1)c1ccccc1B2c1c(C(C)C)cc(C(C)C)cc1C(C)C` came in with an emission maximum (in Cc1ccccc1) of 449 nm and an emission maximum (in O=P(c1ccccc1)(c1ccccc1)c1ccc2oc3ccc(P(=O)(c4ccccc4)c4ccccc4)cc3c2c1) of 465 nm.

The molecule `c1ccc(-c2c3c(cc4c2-c2ccccc2C4)-c2ccccc2C3)cc1` gave an emission maximum (in C1CCCCC1) of 364 nm.

Turning to `CC[n+]1c(-c2ccccc2)c2cc(-n3cccc3)ccc2c2ccc(N)cc21`, the emission maximum (in O) worked out at 603 nm.

For the molecule `O=C(c1ccc(-n2c3ccccc3c3ccccc32)cc1)c1ccc(-n2c3ccccc3c3ccccc32)cc1`, the emission maximum is given as 438 nm (in Cc1ccccc1) and 444 nm under setting [1].

`CC(C)(C)c1cccc2c1oc1nc3oc4ccc(-n5c6ccccc6c6ccccc65)cc4c3cc12`: the emission maximum (in ClC(Cl)Cl) came out at 419 nm.

Where the note is “in C1COCCO1”, `O=C1OC(c2ccccc2)=C/C1=C\c1ccc([N+](=O)[O-])cc1` yielded an emission maximum of 518 nm.

Consider `CCCCN1C(=O)c2cccc3cccc(c23)C1=O`, for which the emission maximum (in Cc1ccccc1) was 392 nm.

For `Cc1cc(C)c(B(c2cc(C#Cc3ccccc3)sc2-c2sc(C#Cc3ccccc3)cc2P(=O)(c2ccccc2)c2ccccc2)c2c(C)cc(C)cc2C)c(C)c1`, the emission maximum (in CO) worked out at 560 nm.

With `O=C1/C(=C\c2ccc3oc4ccccc4c3c2)S(=O)(=O)c2ccccc21`, the emission maximum is, setting by setting: (in C1CCOC1) 437 nm; (in C1COCCO1) 436 nm; (in CC#N) 480 nm; (in CC(C)=O) 458 nm; (in CCOC(C)=O) 429 nm; (in CN(C)C=O) 445 nm. For the same molecule, the emission maximum is, setting by setting: (in CO) 439 nm; (in CS(C)=O) 449 nm; (in Cc1ccccc1) 430 nm; (in ClC(Cl)Cl) 441 nm; (in ClCCl) 438 nm.

Turning to `Cc1cc2c(cc1C)NC(=O)CC(=O)N2`, the emission maximum (in CS(C)=O) is reported as 349 nm.

On to `C=Cc1ccc(OC)cc1`, for which the emission maximum (in C1CCCCC1) came to 322 nm and the emission maximum (in CC#N) stood at 323 nm.

On to `CC(C)(C)c1ccc(-c2ccc(-c3ccc(C(C)(C)C)cc3)c3nsnc23)cc1`, for which the emission maximum (in ClCCl) is recorded as 512 nm.

Where the note is “in ClC(Cl)Cl”, `CCCCCCn1c2cc(/C=C(\C#N)c3cccs3)ccc2c2ccc(/C=C(\C#N)c3cccs3)cc21` came in with an emission maximum of 469.48 nm.

(Values after the Deep4Chem optical property database.)
